What was measured:
N-Type = N-Type (Homo sapiens, UniProt Q00975); test: N-Type calcium channel counter-screen; format: biochemical
hERG = hERG (Homo sapiens, UniProt Q12809); test: hERG counter-screen; format: biochemical
WAG/Rij = WAG/Rij in vivo model; conditions: 10 mpk, @4 hr
α1I [1] = molecular target: T1, α1I (Homo sapiens, UniProt Q9P0X4); test: α1I potency; format: cell-based
Pharmacokinetics in rat = format: in vivo
Panlabs = Panlabs selectivity panel
Papp permeability = format: in vitro ADME; conditions: not told
PGP = PGP (Homo sapiens, UniProt P08183); test: PGP substrate assay; format: in vitro ADME
L-Type = L-Type calcium channel counter-screen; format: biochemical
α1I + Kir = α1I + Kir (Homo sapiens, UniProt Q9P0X4); test: α1I + Kir potency; format: cell-based
α1I [2] = molecular target: T1, α1I; test: α1I VC (voltage clamp) at set holding potentials; format: cell-based
[3] = Pharmacokinetics in monkey; format: in vivo
Pharmacokinetics in dog = format: in vivo
Na Channel = Na Channel counter-screen; format: biochemical
[4] = plasma, 10 mg/kg, PO (1% methylcellulose), 10 mpk
[5] = plasma, 3 mg/kg, PO (1% methylcellulose), 3 mpk
[6] = plasma, 1 mg/kg, PO (1% methylcellulose), 1 mpk

T1 sequence (Q9P0X4 whole entry): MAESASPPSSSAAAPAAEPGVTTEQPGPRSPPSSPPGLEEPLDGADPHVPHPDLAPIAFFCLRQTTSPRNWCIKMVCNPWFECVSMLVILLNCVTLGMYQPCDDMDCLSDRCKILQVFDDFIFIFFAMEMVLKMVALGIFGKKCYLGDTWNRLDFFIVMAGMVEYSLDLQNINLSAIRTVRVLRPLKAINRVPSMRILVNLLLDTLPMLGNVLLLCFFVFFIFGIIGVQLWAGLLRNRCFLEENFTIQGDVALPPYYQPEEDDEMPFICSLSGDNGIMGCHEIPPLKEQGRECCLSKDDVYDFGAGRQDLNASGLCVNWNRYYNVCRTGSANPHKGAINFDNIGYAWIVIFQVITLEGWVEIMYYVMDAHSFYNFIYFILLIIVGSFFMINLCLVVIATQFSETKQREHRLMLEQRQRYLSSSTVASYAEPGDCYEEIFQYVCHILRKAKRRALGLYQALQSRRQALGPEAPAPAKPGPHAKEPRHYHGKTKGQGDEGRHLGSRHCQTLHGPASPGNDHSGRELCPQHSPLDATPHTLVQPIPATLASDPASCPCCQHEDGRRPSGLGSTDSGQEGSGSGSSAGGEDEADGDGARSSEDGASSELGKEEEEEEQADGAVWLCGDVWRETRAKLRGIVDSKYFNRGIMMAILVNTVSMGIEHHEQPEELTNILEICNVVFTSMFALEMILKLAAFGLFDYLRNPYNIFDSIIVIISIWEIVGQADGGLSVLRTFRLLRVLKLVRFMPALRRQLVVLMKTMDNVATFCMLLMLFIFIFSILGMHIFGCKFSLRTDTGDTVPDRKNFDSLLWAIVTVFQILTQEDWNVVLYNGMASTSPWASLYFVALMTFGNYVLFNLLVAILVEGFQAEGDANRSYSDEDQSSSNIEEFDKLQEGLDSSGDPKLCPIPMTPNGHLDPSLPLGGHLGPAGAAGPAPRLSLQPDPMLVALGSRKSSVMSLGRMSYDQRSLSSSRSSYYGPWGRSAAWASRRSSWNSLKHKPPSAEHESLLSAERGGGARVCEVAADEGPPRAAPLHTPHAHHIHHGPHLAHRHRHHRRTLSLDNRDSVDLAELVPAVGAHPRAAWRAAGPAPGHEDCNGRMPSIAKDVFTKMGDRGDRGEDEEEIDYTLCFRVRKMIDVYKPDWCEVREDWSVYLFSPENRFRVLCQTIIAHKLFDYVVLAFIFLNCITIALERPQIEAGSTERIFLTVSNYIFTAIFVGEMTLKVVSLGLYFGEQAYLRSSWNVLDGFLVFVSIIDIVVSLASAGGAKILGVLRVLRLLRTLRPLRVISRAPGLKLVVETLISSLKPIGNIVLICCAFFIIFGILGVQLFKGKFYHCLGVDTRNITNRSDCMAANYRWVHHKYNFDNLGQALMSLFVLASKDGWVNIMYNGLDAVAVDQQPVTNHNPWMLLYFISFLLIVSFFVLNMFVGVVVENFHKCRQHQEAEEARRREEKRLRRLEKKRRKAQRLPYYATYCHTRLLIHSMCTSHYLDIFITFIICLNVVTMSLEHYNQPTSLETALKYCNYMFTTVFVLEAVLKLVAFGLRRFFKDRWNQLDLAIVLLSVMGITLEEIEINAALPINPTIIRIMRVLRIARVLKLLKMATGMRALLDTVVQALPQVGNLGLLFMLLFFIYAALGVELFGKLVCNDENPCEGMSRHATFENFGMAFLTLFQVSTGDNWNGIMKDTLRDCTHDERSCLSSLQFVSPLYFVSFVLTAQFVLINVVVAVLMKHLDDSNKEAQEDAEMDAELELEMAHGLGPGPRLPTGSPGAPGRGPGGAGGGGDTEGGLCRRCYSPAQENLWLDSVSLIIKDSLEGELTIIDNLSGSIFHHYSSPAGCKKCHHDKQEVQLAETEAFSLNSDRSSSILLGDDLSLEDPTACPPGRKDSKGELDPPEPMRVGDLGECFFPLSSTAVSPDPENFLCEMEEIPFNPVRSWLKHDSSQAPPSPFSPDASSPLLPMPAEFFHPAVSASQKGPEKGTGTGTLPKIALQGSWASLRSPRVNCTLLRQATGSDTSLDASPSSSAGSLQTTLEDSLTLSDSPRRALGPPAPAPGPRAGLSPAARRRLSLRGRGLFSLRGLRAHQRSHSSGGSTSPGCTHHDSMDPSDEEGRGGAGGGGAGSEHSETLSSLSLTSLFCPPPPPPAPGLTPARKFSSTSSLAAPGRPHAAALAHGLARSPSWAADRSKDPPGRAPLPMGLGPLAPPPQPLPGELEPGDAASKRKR
Sequence of PGP (P08183 whole entry): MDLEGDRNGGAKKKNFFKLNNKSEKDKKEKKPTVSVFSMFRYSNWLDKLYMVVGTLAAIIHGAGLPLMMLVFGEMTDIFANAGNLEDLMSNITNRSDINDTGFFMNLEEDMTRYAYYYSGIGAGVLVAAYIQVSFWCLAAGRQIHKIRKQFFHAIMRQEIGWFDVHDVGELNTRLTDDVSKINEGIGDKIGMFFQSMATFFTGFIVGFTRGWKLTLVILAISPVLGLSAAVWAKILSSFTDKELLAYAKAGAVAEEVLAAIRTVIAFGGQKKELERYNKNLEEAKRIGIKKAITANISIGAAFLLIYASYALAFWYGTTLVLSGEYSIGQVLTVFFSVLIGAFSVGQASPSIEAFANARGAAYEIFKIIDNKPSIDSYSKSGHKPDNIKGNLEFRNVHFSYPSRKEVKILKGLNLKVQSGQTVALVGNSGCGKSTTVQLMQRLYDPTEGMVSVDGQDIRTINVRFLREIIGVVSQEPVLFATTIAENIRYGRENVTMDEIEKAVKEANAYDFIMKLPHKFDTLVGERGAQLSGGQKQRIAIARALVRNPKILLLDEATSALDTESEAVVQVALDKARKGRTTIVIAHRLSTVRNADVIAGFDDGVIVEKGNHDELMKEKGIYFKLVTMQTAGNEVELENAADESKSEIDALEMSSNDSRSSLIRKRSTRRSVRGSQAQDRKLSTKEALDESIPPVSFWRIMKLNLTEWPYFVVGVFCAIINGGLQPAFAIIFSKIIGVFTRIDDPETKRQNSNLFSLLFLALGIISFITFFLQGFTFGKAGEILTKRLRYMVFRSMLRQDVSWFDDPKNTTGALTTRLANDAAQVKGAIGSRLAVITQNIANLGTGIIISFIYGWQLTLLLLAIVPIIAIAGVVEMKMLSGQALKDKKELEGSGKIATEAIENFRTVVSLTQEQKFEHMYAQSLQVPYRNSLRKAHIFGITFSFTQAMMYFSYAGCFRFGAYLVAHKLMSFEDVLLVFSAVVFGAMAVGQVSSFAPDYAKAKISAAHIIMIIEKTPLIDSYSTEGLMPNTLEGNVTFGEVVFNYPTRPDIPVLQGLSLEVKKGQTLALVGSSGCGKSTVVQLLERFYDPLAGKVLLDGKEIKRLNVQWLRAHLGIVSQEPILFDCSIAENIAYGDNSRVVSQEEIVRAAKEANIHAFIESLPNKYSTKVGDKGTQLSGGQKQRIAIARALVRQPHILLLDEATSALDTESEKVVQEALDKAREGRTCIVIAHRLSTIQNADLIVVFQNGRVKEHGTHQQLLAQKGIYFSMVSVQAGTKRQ
Sequence of hERG (Q12809 whole entry): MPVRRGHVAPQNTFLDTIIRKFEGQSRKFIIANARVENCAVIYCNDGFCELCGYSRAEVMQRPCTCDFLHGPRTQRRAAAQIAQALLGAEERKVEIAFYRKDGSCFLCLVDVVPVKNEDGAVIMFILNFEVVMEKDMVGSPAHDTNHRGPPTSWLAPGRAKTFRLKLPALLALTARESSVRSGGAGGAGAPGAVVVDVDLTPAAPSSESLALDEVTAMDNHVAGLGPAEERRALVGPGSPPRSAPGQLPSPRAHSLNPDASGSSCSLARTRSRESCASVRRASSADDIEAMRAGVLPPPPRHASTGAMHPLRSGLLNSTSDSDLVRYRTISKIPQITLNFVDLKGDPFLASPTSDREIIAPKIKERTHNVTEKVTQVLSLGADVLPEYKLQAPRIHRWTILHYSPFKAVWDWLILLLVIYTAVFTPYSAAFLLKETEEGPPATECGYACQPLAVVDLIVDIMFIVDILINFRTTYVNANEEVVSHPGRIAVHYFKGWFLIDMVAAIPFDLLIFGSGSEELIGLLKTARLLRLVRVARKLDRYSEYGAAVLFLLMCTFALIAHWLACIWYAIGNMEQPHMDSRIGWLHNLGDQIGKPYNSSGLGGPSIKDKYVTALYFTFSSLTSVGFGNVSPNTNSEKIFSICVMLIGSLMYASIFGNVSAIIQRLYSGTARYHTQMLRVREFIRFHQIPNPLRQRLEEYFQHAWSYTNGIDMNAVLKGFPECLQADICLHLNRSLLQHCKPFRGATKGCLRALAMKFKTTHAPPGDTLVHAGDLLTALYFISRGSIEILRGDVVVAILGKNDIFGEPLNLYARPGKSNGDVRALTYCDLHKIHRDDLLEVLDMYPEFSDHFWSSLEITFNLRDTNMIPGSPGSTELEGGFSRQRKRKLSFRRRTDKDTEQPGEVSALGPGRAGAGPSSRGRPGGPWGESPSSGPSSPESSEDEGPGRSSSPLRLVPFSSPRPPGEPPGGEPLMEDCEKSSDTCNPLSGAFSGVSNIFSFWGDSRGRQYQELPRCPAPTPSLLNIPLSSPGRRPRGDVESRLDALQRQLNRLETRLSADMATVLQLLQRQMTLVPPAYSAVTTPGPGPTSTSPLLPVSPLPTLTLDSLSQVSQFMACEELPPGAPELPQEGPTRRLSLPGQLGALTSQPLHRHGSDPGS
Sequence of α1I + Kir (Q9P0X4 whole entry): as the sequence (Q9P0X4 whole entry) above

Q: What does the source list for `C[C@@H](NC(=O)Cc1ccc(C2CC2)cc1)c1ccc(OCC(F)(F)F)cn1` [TTA-A2]?
A: IC50 (N-Type): > 10000 nM; IC50 (hERG): > 10000 nM; WAG/Rij inhibition (WAG/Rij): 87% inhibition@4 hr; IC50 (α1I [1]): 9 nM; Clp (Pharmacokinetics in rat; IV (DMSO)): 6 mL/min/kg; F (Pharmacokinetics in rat; PO (1% methylcellulose), 10 mpk): 68%; AUC (Pharmacokinetics in rat; [4]): 46 µM·h; Cmax (Pharmacokinetics in rat; [4]): 7600 nM; half-life (Pharmacokinetics in rat; plasma, IV (DMSO)): 1.6 h; Panlabs hits >50% @10 uM (Panlabs): 0 hits >50% @10 uM; Papp (Papp permeability): 490 ×10⁻⁶ cm/s; PGP (PGP): 0.7; IC50 (L-Type): > 10000 nM; IC50 (α1I + Kir): 296 nM; IC50 (α1I [2]; −80 mV, read-out: a1I VC (−80 mV)): 98 nM; IC50 (α1I [2]; −100 mV, read-out: α1I VC (−100 mV)): 4200 nM; Clp ([3]; IV (DMSO)): 17 mL/min/kg; T1/2 ([3]; IV (DMSO)): 0.9 h; F ([3]; PO (1% methylcellulose), 3 mpk): 7%; AUC [3, 5]: 0.6 µM·h; Cmax [3, 5]: 300 nM; Clp (Pharmacokinetics in dog; IV (DMSO)): 0.9 mL/min/kg; T1/2 (Pharmacokinetics in dog; IV (DMSO)): 11 h; F (Pharmacokinetics in dog; PO (1% methylcellulose), 1 mpk): 43%; AUC (Pharmacokinetics in dog; [6]): 23 µM·h; Cmax (Pharmacokinetics in dog; [6]): 2100 nM; IC50 (Na Channel): > 10000 nM

— patent US20200163943A1, “METHODS FOR TREATING DRAVET SYNDROME” (Cavion, Inc., priority 2017, published 2020)
